Test results: patent publication US20240132431A1, “METHOD FOR ALKYLATING ACIDIC FUNCTIONAL GROUP” (Chugai Seiyaku Kabushiki Kaisha, priority 2021, published 2024)

Target: T1, Bcl-2 protein (Recombinant Human Bcl-2 Protein) (Homo sapiens, UniProt P10415)
T1 construct: purchased Novus NBP2-34889
Experiment: Binding evaluation of mixture library compounds to Bcl-2 using AS-MS (affinity selection mass spectrometry)
Conditions: for ASMS ratio (%) n = 1 / ASMS ratio (%) n = 2: AS-MS on the mixture of 1200 library compounds, ASMS Ratio(%)=(A−C)/B×100; for ASMS ratio (%) n = 1: replicate n = 1; for ASMS ratio (%) n = 2: replicate n = 2
Outline: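 Readout is ASMS Ratio (%), (A−C)/B×100, from reversed-phase LC/MS of SEC-passed extracts, with protein-free unfiltered standard (B) and protein-free SEC blank (C). Recombinant human Bcl-2 at 20 μM final met ~1200 pooled compounds at […] each for 1 h, 23° C., dark, in Tris-HCl pH 7.4 buffer.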

T1 sequence (P10415 whole entry): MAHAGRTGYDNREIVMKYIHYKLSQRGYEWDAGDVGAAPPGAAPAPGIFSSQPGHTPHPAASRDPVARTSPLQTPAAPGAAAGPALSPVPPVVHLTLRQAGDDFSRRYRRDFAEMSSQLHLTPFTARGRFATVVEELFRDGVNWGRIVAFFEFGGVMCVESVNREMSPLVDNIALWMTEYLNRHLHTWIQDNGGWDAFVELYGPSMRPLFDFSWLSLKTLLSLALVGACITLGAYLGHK

Structure (SMILES) | ASMS ratio (%) (n = 1) | ASMS ratio (%) (n = 2) | ASMS ratio (%) n = 1 [%] | ASMS ratio (%) n = 2 [%]
CCOc1cncc(-c2cc(CN3CCN(c4ccc(C(=O)NS(=O)(=O)c5ccc(NCCSc6ccccc6)c(C(F)(F)F)c5)nn4)CC3)cc(OC(F)(F)F)c2)c1 [B2R090-01, 6-[4-[[3-(5-Ethoxypyridin-3-yl)-5-(trifluoromethoxy)phenyl]methyl]piperazin-1-yl]-N-[4-(2-phenylsulfanylethylamino)-3-(trifluoromethyl)phenyl]sulfonylpyridazine-3-carboxamide] | 22.4 | 5.3 | – | –
CCOc1cccc(-c2ccc(CN3CCN(c4ccc(C(=O)NS(=O)(=O)c5ccc(NCCSc6ccccc6)c(C(F)(F)F)c5)nn4)CC3)c3ccccc23)c1 [B2R091-01, 6-[4-[[4-(3-Ethoxyphenyl)naphthalen-1-yl]methyl]piperazin-1-yl]-N-[4-(2-phenylsulfanylethylamino)-3-(trifluoromethyl)phenyl]sulfonylpyridazine-3-carboxamide] | −3.5 | 1.8 | – | –
CCOc1cncc(-c2ccc(CN3CCN(c4ccc(C(=O)NS(=O)(=O)c5ccc(NCCSc6ccccc6)c(C(F)(F)F)c5)nn4)CC3)c3ccccc23)c1 [B2R092-01, 6-[4-[[4-(5-Ethoxypyridin-3-yl)naphthalen-1-yl]methyl]piperazin-1-yl]-N-[4-(2-phenylsulfanylethylamino)-3-(trifluoromethyl)phenyl]sulfonylpyridazine-3-carboxamide] | 16.0 | −1.3 | – | –
CCOc1cccc(-c2csc(CN3CCN(c4ccc(C(=O)NS(=O)(=O)c5ccc(NCCSc6ccccc6)c(C(F)(F)F)c5)nn4)CC3)c2)c1 [B2R093-01, 6-[4-[[4-(3-Ethoxyphenyl)thiophen-2-yl]methyl]piperazin-1-yl]-N-[4-(2-phenylsulfanylethylamino)-3-(trifluoromethyl)phenyl]sulfonylpyridazine-3-carboxamide] | 56.5 | 0.0 | – | –
CCOc1cncc(-c2csc(CN3CCN(c4ccc(C(=O)NS(=O)(=O)c5ccc(NCCSc6ccccc6)c(C(F)(F)F)c5)nn4)CC3)c2)c1 [B2R094-01, 6-[4-[[4-(5-Ethoxypyridin-3-yl)thiophen-2-yl]methyl]piperazin-1-yl]-N-[4-(2-phenylsulfanylethylamino)-3-(trifluoromethyl)phenyl]sulfonylpyridazine-3-carboxamide] | 18.8 | 11.9 | – | –
CCOc1cccc(C#Cc2ccccc2CN2CCN(c3ccc(C(=O)NS(=O)(=O)c4ccc(NCCSc5ccccc5)c(C(F)(F)F)c4)nn3)CC2)c1 [B2R095-01, 6-[4-[[2-[2-(3-Ethoxyphenyl)ethynyl]phenyl]methyl]piperazin-1-yl]-N-[4-(2-phenylsulfanylethylamino)-3-(trifluoromethyl)phenyl]sulfonylpyridazine-3-carboxamide] | 42.2 | 5.5 | – | –
CCOc1cccc(-c2ccc(C(C)N3CCN(c4ccc(C(=O)NS(=O)(=O)c5ccc(NCCSc6ccccc6)c(C(F)(F)F)c5)cc4)CC3)cc2)c1 (stereo not shown) [B2R097-01, 4-[4-[1-[4-(3-Ethoxyphenyl)phenyl]ethyl]piperazin-1-yl]-N-[4-(2-phenylsulfanylethylamino)-3-(trifluoromethyl)phenyl]sulfonylbenzamide] | 6.6 | −7.8 | – | –
CCOc1cncc(-c2ccc(C(C)N3CCN(c4ccc(C(=O)NS(=O)(=O)c5ccc(NCCSc6ccccc6)c(C(F)(F)F)c5)cc4)CC3)cc2)c1 (stereo not shown) [B2R098-01, 4-[4-[1-[4-(5-Ethoxypyridin-3-yl)phenyl]ethyl]piperazin-1-yl]-N-[4-(2-phenylsulfanylethylamino)-3-(trifluoromethyl)phenyl]sulfonylbenzamide] | 9.2 | 7.5 | – | –
CCOc1cccc(-c2csc(C(=O)N3CCN(c4ccc(C(=O)N(C)CC56CC7CC(CC(C7)C5)C6)nn4)CC3)c2)c1 [B3A001-01, N-(1-Adamantylmethyl)-6-[4-[4-(3-ethoxyphenyl)thiophene-2-carbonyl]piperazin-1-yl]-N-methylpyridazine-3-carboxamide] | – | – | 0.0 | −8.4
CCOc1cncc(-c2csc(C(=O)N3CCN(c4ccc(C(=O)N(C)CC56CC7CC(CC(C7)C5)C6)nn4)CC3)c2)c1 [B3A002-01, N-(1-Adamantylmethyl)-6-[4-[4-(5-ethoxypyridin-3-yl)thiophene-2-carbonyl]piperazin-1-yl]-N-methylpyridazine-3-carboxamide] | – | – | 1.9 | −1.2
CCOc1cccc(-c2ccc(C(=O)N3CCN(c4ccc(C(=O)N(C)CC56CC7CC(CC(C7)C5)C6)nn4)CC3)cc2C)c1 [B3A003-01, N-(1-Adamantylmethyl)-6-[4-[4-(3-ethoxyphenyl)-3-methylbenzoyl]piperazin-1-yl]-N-methylpyridazine-3-carboxamide] | – | – | 6.5 | 4.9
CCOc1cncc(-c2ccc(C(=O)N3CCN(c4ccc(C(=O)N(C)CC56CC7CC(CC(C7)C5)C6)nn4)CC3)cc2C)c1 [B3A004-01, N-(1-Adamantylmethyl)-6-[4-[4-(5-ethoxypyridin-3-yl)-3-methylbenzoyl]piperazin-1-yl]-N-methylpyridazine-3-carboxamide] | – | – | 3.5 | −0.5
CCOc1cccc(-c2ccc(C(=O)N3CCN(c4ccc(C(=O)N(C)CC56CC7CC(CC(C7)C5)C6)nn4)CC3)cc2F)c1 [B3A005-01, N-(1-Adamantylmethyl)-6-[4-[4-(3-ethoxyphenyl)-3-fluorobenzoyl]piperazin-1-yl]-N-methylpyridazine-3-carboxamide] | – | – | −1.5 | −4.8
CCOc1cncc(-c2ccc(C(=O)N3CCN(c4ccc(C(=O)N(C)CC56CC7CC(CC(C7)C5)C6)nn4)CC3)cc2F)c1 [B3A006-01, N-(1-Adamantylmethyl)-6-[4-[4-(5-ethoxypyridin-3-yl)-3-fluorobenzoyl]piperazin-1-yl]-N-methylpyridazine-3-carboxamide] | – | – | 0.0 | 0.0
CCOc1cccc(C#Cc2ccccc2C(=O)N2CCN(c3ccc(C(=O)N(C)CC45CC6CC(CC(C6)C4)C5)nn3)CC2)c1 [B3A007-01, N-(1-Adamantylmethyl)-6-[4-[2-[2-(3-ethoxyphenyl)ethynyl]benzoyl]piperazin-1-yl]-N-methylpyridazine-3-carboxamide] | – | – | 9.1 | −5.1
CCOc1cncc(C#Cc2ccccc2C(=O)N2CCN(c3ccc(C(=O)N(C)CC45CC6CC(CC(C6)C4)C5)nn3)CC2)c1 [B3A008-01, N-(1-Adamantylmethyl)-6-[4-[2-[2-(5-ethoxypyridin-3-yl)ethynyl]benzoyl]piperazin-1-yl]-N-methylpyridazine-3-carboxamide] | – | – | 0.6 | −0.3
CCOc1cccc(C#Cc2cncc(C(=O)N3CCN(c4ccc(C(=O)N(C)CC56CC7CC(CC(C7)C5)C6)nn4)CC3)c2)c1 [B3A009-01, N-(1-Adamantylmethyl)-6-[4-[5-[2-(3-ethoxyphenyl)ethynyl]pyridine-3-carbonyl]piperazin-1-yl]-N-methylpyridazine-3-carboxamide] | – | – | 0.6 | −0.3
CCOc1cncc(C#Cc2cncc(C(=O)N3CCN(c4ccc(C(=O)N(C)CC56CC7CC(CC(C7)C5)C6)nn4)CC3)c2)c1 [B3A010-01, N-(1-Adamantylmethyl)-6-[4-[5-[2-(5-ethoxypyridin-3-yl)ethynyl]pyridine-3-carbonyl]piperazin-1-yl]-N-methylpyridazine-3-carboxamide] | – | – | 0.0 | 0.0
CCOc1cccc(-c2ccccc2CCC(=O)N2CCN(c3ccc(C(=O)N(C)CC45CC6CC(CC(C6)C4)C5)nn3)CC2)c1 [B3A011-01, N-(1-Adamantylmethyl)-6-[4-[3-[2-(3-ethoxyphenyl)phenyl]propanoyl]piperazin-1-yl]-N-methylpyridazine-3-carboxamide] | – | – | 4.5 | 2.0
CCOc1cncc(-c2ccccc2CCC(=O)N2CCN(c3ccc(C(=O)N(C)CC45CC6CC(CC(C6)C4)C5)nn3)CC2)c1 [B3A012-01, N-(1-Adamantylmethyl)-6-[4-[3-[2-(5-ethoxypyridin-3-yl)phenyl]propanoyl]piperazin-1-yl]-N-methylpyridazine-3-carboxamide] | – | – | 1.4 | −2.7
CCOc1cccc(-c2ccc(C(=O)N3CCN(c4ccc(C(=O)N(C)CC56CC7CC(CC(C7)C5)C6)nn4)CC3)c3ccccc23)c1 [B3A013-01, N-(1-Adamantylmethyl)-6-[4-[4-(3-ethoxyphenyl)naphthalene-1-carbonyl]piperazin-1-yl]-N-methylpyridazine-3-carboxamide] | – | – | 10.2 | −20.0
CCOc1cncc(-c2ccc(C(=O)N3CCN(c4ccc(C(=O)N(C)CC56CC7CC(CC(C7)C5)C6)nn4)CC3)c3ccccc23)c1 [B3A014-01, N-(1-Adamantylmethyl)-6-[4-[4-(5-ethoxypyridin-3-yl)naphthalene-1-carbonyl]piperazin-1-yl]-N-methylpyridazine-3-carboxamide] | – | – | 0.6 | 0.8
CCOc1cccc(-c2cc(C(=O)N3CCN(c4ccc(C(=O)N(C)CC56CC7CC(CC(C7)C5)C6)nn4)CC3)cc(C(C)(C)C)c2)c1 [B3A015-01, N-(1-Adamantylmethyl)-6-[4-[3-tert-butyl-5-(3-ethoxyphenyl)benzoyl]piperazin-1-yl]-N-methylpyridazine-3-carboxamide] | – | – | 8.9 | 3.0
